In assay [1] the test system is primary hippocampal neurons. As to the kind of experiment: Scratch injury: p-PKA immunofluorescence. The conditions noted are these: 24 hours after scratch injury. The format is cell-based, rat. How it is done: (§1) Primary hippocampal neurons were obtained from embryonic day 18 (E18) Sprague-Dawley rat embryos. Pregnant rats were anesthetized using 2-3% isoflurane in a gas mixture of 70% nitrous oxide and 30% oxygen. Following euthanasia, the hippocampi were carefully dissected, minced, and enzymatically dissociated using TrypLE Express (Gibco, NY, USA) for 10 minutes at 37°C. The tissue was further mechanically dissociated using fire-polished glass pipettes, and the resulting cell suspension was filtered through a 70 μm cell strainer to remove debris. Neurons were seeded at a density of 3 × 10^5 cells per well in 24-well plates pre-coated with poly-L-lysine (Sigma-Aldrich, Saint Louis, MO, USA). Cells were maintained in neurobasal medium supplemented with B-27 (Thermo Fisher Scientific, Waltham, MA, USA), GlutaMAX (Gibco), and penicillin-streptomycin. The cultures were incubated at 37.5°C in a humidified atmosphere containing 5% CO₂. After seven days of growth, neurons were fixed with 4% paraformaldehyde (PFA) for 15 minutes at room temperature and subsequently stored at 4°C until their further use for immunostaining.
A scratch injury model was used to mimic TBI in vitro. […] After the treatment period, neuronal damage and recovery were assessed using appropriate evaluation methods. […]

For assay [2], the system named is primary hippocampal neurons. The assay can be described thus: Scratch injury: lysosomal zinc (FluoZin-3 / LysoTracker). In kind it is cell-based, rat. The conditions noted are these: scratched neurons, 24 hours after scratch. How it is done: as §1
A scratch injury model was used to mimic TBI in vitro. […] After the treatment period, neuronal damage and recovery were assessed using appropriate evaluation methods.

As for `CC(C)c1ccc2oc3nc(N)c(C(=O)O)cc3c(=O)c2c1` [AMX, amlexanox], the “phosphorylation of PKA (immunofluorescence, Figure S2E-J)” value in assay [1] is “increasing the phosphorylation of PKA”. The “lysosomal zinc levels (FluoZin-3 / LysoTracker)” value in assay [2] is listed as “restored lysosomal zinc levels to near-normal levels”.

The values above are taken from PMC12320245 (International Journal of Biological Sciences, 2025).
